What was measured:
[1] = test system: extracted ciliary muscle of white rabbit; assay: Effect on carbachol contraction of extracted ciliary muscle of white rabbit (Magnus bath); type: cell-based
Protocol: Male Japanese white rabbits (body weight about 2 kg) were euthanized by intravenous administration of an excess pentobarbital sodium. The eyeball was enucleated immediately thereafter and preserved in a Krebs solution (NaCl:112 mM, KC1:5.9 mM, CaCl2 2H2O:2.0 mM, MgCl2 6H2O:1.2 mM, NaH2PO4 2H2O:1.2 mM, NaHCO3:25 mM, Glucose:11.5 mM). The ciliary body separated from the eyeball was hung in a Magnus bath filled with the Krebs solution and equilibrated under a 20-30 mg resting tension. The changes in the tension of the preparation was measured with a transducer and recorded on a pen recorder via an amplifier. As the contraction drug, carbachol was used, and the inhibitory action on the dose dependent response of phasic contraction was studied. The test drug was (+)-trans-4-(1-aminoethyl)-1-(4-pyridylcarbamoyl)cyclohexane 2HCl 1H2O (Compound A), which was added to the Magnus bath 5 min before addition of carbachol.

[2] = test system: Japanese white rabbits; assay: Effect on normal intraocular pressure of white rabbits; type: in vivo, rabbit; conditions: 20 μl eye drop, 0.1% or 0.03%
Description: In this experiment, 0.1% eye drop and 0.03% eye drop containing Compound A (each prepared in Example 2 and Example 3), 0.03% eye drop containing Compound B (prepared in Example 4), 0.1% eye drop and 0.03% eye drop containing Compound C (each prepared in Example 5 and Example 6) and 0.03% eye drop containing Compound D (prepared in Example 7) were used.
Japanese white rabbits (body weight about 2 kg) purchased from Japan Laboratory Animals, INC. were used. These animals were bred in a breeding chamber set to temperature 23±3° C., humidity 55±10% and fed on limited amount of 100 g a day of a solid feed (Labo R Stock, Nihon-Nosan Kogyo K.K.). They were allowed free access to tap water. The rabbits were placed in a holding box for 5 hr a day for acclimation from 2 days prior to the test. […] After measurement of the initial value of the intraocular pressure, various eye drops (20 μl) were instilled into one eye, and a base, which was one of various eye drops except the test drug, was instilled into the other eye in the same manner and taken as the control eye.
The intraocular pressure was measured with time at 30, 60, 90, 120, 150 and 180 min after instillation and thereafter at one hour intervals until the intraocular pressure returned to the initial value, and the duration of the effect was examined.

[3] = test system: Japanese white rabbits; assay: Effect on blood flow of normal optic disc of white rabbits; type: in vivo, rabbit; conditions: 0.1% eye drop
Protocol: In this experiment, 0.1% eye drop containing Compound A (prepared in Example 2) and 0.1% eye drop containing Compound C (prepared in Example 5) were used.
Japanese white rabbits (body weight about 2 kg) purchased from Japan Laboratory Animals, INC. were used. These animals were bred in a breeding chamber set to temperature 23±3° C., humidity 55±10% and fed on limited amount of 100 g a day of a solid feed (Labo R Stock, Nihon-Nosan Kogyo K.K.). They were allowed free access to tap water. In the same manner as in Example 4, each test drug was administered. Using laser speckle microcirculation analyzer, the blood flow of optic disc was measured at 30, 60, 90, 120, 150 and 180 min after instillation and thereafter at one hour intervals till 300 min after the instillation.

[4] = test system: Japanese white rabbits; assay: Ophthalmic disorder caused by 8-time-a-day instillation to white rabbits: observation of corneal staining spot; type: in vivo, rabbit; conditions: after 8th administration
Protocol: The test drugs, Compound A and Compound C, were each dissolved in the following base at a concentration of 0.125, 0.25, 0.5 and 1.0% and adjusted to pH 7 for use in this experiment. Japanese white rabbits (body weight about 2 kg) purchased from Japan Laboratory Animals, INC. were used. These animals were bred in a breeding chamber set to temperature 23±3° C., humidity 55±10% and fed on limited amount of 100 g a day of a solid feed (Labo R Stock, Nihon-Nosan Kogyo K.K.). They were allowed free access to tap water. Instillation: Using a micropipet, each test drug (100 μl) was instilled into the right eye of each animal 8 times at one hour intervals. Into the left eye was instilled a base in the same manner. Observation: anterior segment of the eye was macroscopically observed before instillation and 30 min after 2nd, 4th, 6th and 8th administrations, according to the macroscopic criteria for ocular lesions as shown in Table 1 (Naruyuki Fukui, […] no Rinshou 4, 277-289, 1970). In addition, corneal staining spot was observed before instillation and after 8th administration.

| IC50 ([1]; ciliary muscle, added 5 min before carbachol, read-out: IC50 against carbachol contraction) [nM] | observation of corneal staining spot ([4]; any concentration (0.125, 0.25, 0.5 and 1.0%)) | observation of corneal staining spot ([4]; 0.125% instillation) | observation of corneal staining spot ([4]; 0.25% instillation, corneal epithelium) | observation of corneal staining spot ([4]; 0.5% instillation, corneal epithelium) | observation of corneal staining spot ([4]; 1.0% instillation, corneal epithelium) | SMILES | type of antagonism against carbachol contraction ([1]; 10^−6-3×10^−4 M carbachol) | character (onset, duration) of intraocular pressure lowering effect [2] | duration of optic disc blood flow increasing effect [3] |
| --- | --- | --- | --- | --- | --- | --- | --- | --- | --- |
| 2800 | did not lead to abnormalities | – | – | – | – | CC(N)[C@H]1CC[C@H](C(=O)Nc2ccncc2)CC1.Cl.Cl.O (single isomer, unassigned; (+)) [Compound A, (+)-trans-4-(1-Aminoethyl)-1-(4-pyridylcarbamoyl)cyclohexane 2HCl 1H2O] | non-competitive antagonism | intraocular pressure lowering effect in early stages after instillation | more long-lasting |
| – | – | did not cause particular abnormality | abnormality in two eyes | abnormality in all eyes | abnormality in all eyes | C[C@@H](N)c1ccc(C(=O)Nc2ccncc2)cc1.Cl.Cl [Compound C, (R)-(+)-N-(4-pyridyl)-4-(1-aminoethyl)benzamide 2HCl] | – | – | – |

Source: patent US6673812B1, “Preventives/remedies for glaucoma” (Senju Pharmaceutical Co., Ltd., priority 1998, dated 2004)
